Results taken from ChEMBL document CHEMBL1201862, “PubChem BioAssay data set” (2004).
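Tested at 5 concentrations; 48 h exposure; 96-well plates; endpoints linearly interpolated, else capped at highest concentration. Abbreviation: GI50, concentration required for 50% inhibition of growth.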 Active and inactive are the calls of the source. Rule as the data show it: active = GI50 up to about 1.1 µM and inactive = higher.

Experiments:
Experiment in all cases: NCI tumour cell line growth inhibition, 48 h
XF498 = system: XF498
OVCAR-5 = system: OVCAR-5
KM12 = system: KM12
SF-295 = system: SF-295
LXFL 529 = system: LXFL 529
UO-31 = system: UO-31
HOP-92 = system: HOP-92
MOLT-4 = system: MOLT-4
UACC-257 = system: UACC-257
DMS-114 = system: DMS-114
SNB-19 = system: SNB-19
K562 = system: K562
HCC 2998 = system: HCC 2998
HL-60 = system: HL-60
CAKI-1 = system: CAKI-1
SR = system: SR
HCT-15 = system: HCT-15
NCI-H460 = system: NCI-H460
Malme-3M = system: Malme-3M
HOP-62 = system: HOP-62
HOP-18 = system: HOP-18
SF-268 = system: SF-268
HCT-116 = system: HCT-116
OVCAR-3 = system: OVCAR-3
SW-620 = system: SW-620
OVCAR-8 = system: OVCAR-8
HT-29 = system: HT-29
NCI-H522 = system: NCI-H522
SNB-75 = system: SNB-75
SK-MEL-2 = system: SK-MEL-2
SK-MEL-5 = system: SK-MEL-5
UACC-62 = system: UACC-62
A498 = system: A498
ACHN = system: ACHN
M19-MEL = system: M19-MEL
786-0 = system: 786-0
EKVX = system: EKVX
OVCAR-4 = system: OVCAR-4
A549 = system: A549
LOX IMVI = system: LOX IMVI
DMS-273 = system: DMS-273
SNB-78 = system: SNB-78
U-251 = system: U-251
CCRF-CEM = system: CCRF-CEM
IGROV-1 = system: IGROV-1
NCI-H23 = system: NCI-H23
SF-539 = system: SF-539
M14 = system: M14
NCI-H226 = system: NCI-H226
RPMI-8226 = system: RPMI-8226
DLD-1 = system: DLD-1
COLO 205 = system: COLO 205
RXF 393 = system: RXF 393
TK-10 = system: TK-10
SK-OV-3 = system: SK-OV-3
KM-20L2 = system: KM-20L2
SN12C = system: SN12C
MDA-MB-435 = system: MDA-MB-435
MCF7 = system: MCF7
RXF 631 = system: RXF 631
SK-MEL-28 = system: SK-MEL-28

## COC(=O)C1=C(C)N(NC(=O)OC(C)(C)C)C(=O)C1=P(c1ccccc1)(c1ccccc1)c1ccccc1
XF498
  GI50: > 100 µM (inactive)
OVCAR-5
  GI50: > 100 µM (inactive)
KM12
  GI50: 64 µM (inactive)
SF-295
  GI50: 67.9 µM (inactive)
LXFL 529
  GI50: > 100 µM (inactive)
UO-31
  GI50: > 100 µM (inactive)
HOP-92
  GI50: > 100 µM (inactive)
MOLT-4
  GI50: 41.4 µM (inactive)
UACC-257
  GI50: > 100 µM (inactive)
DMS-114
  GI50: > 100 µM (inactive)
SNB-19
  GI50: > 100 µM (inactive)
K562
  GI50: 73.5 µM (inactive)
HCC 2998
  GI50: > 100 µM (inactive)
HL-60
  GI50: 42.4 µM (inactive)
CAKI-1
  GI50: > 100 µM (inactive)
SR
  GI50: 69 µM (inactive)
HCT-15
  GI50: > 100 µM
NCI-H460
  GI50: > 100 µM (inactive)
Malme-3M
  GI50: > 100 µM (inactive)
HOP-62
  GI50: > 100 µM (inactive)
HOP-18
  GI50: > 100 µM (inactive)
SF-268
  GI50: > 100 µM (inactive)
HCT-116
  GI50: > 100 µM (inactive)
OVCAR-3
  GI50: 66.8 µM (inactive)
SW-620
  GI50: > 100 µM (inactive)
OVCAR-8
  GI50: > 100 µM (inactive)
HT-29
  GI50: > 100 µM (inactive)
NCI-H522
  GI50: 75.5 µM (inactive)
SNB-75
  GI50: > 100 µM (inactive)
SK-MEL-2
  GI50: 17.2 µM (inactive)
SK-MEL-5
  GI50: > 100 µM (inactive)
UACC-62
  GI50: > 100 µM (inactive)
A498
  GI50: > 100 µM (inactive)
ACHN
  GI50: > 100 µM (inactive)
M19-MEL
  GI50: > 100 µM (inactive)
786-0
  GI50: > 100 µM (inactive)
EKVX
  GI50: > 100 µM (inactive)
OVCAR-4
  GI50: > 100 µM (inactive)
A549
  GI50: > 100 µM (inactive)
LOX IMVI
  GI50: > 100 µM (inactive)
DMS-273
  GI50: 35.2 µM (inactive)
SNB-78
  GI50: > 100 µM (inactive)
U-251
  GI50: > 100 µM (inactive)
CCRF-CEM
  GI50: > 100 µM (inactive)
IGROV-1
  GI50: > 100 µM (inactive)
NCI-H23
  GI50: > 100 µM (inactive)
SF-539
  GI50: > 100 µM (inactive)
M14
  GI50: > 100 µM (inactive)
NCI-H226
  GI50: > 100 µM (inactive)
RPMI-8226
  GI50: > 100 µM (inactive)
DLD-1
  GI50: > 100 µM (inactive)
COLO 205
  GI50: > 100 µM (inactive)
RXF 393
  GI50: > 100 µM (inactive)
TK-10
  GI50: > 100 µM (inactive)
SK-OV-3
  GI50: > 100 µM (inactive)
KM-20L2
  GI50: > 100 µM (inactive)
SN12C
  GI50: > 100 µM (inactive)

## CC[C@H]1CN2CCc3cc(OC)c(OC)cc3[C@@H]2C[C@@H]1C[C@H]1NCCc2cc(OC)c(OC)cc21
LXFL 529
  GI50: 0.0276 µM (active)
MOLT-4
  GI50: 0.0161 µM (active)
K562
  GI50: 0.0104 µM (active)
HL-60
  GI50: 0.0148 µM (active)
MDA-MB-435
  GI50: 0.0188 µM (active)
HOP-18
  GI50: 0.0578 µM (active)
HCT-116
  GI50: 0.0149 µM (active)
NCI-H522
  GI50: 0.0109 µM (active)
DMS-273
  GI50: 0.043 µM (active)
DLD-1
  GI50: 0.0358 µM (active)
MCF7
  GI50: 0.00347 µM (active)
RXF 631
  GI50: 0.0311 µM (active)
KM-20L2
  GI50: 0.0652 µM (active)

## CC1=C2C(O)C(C(C)CO)C(O)CC2(C)C(O)CC1 (centres undefined)
OVCAR-5
  GI50: > 100 µM (inactive)
KM12
  GI50: > 100 µM (inactive)
SF-295
  GI50: > 100 µM (inactive)
LXFL 529
  GI50: > 100 µM (inactive)
UO-31
  GI50: > 100 µM (inactive)
HOP-92
  GI50: > 100 µM (inactive)
MOLT-4
  GI50: > 100 µM (inactive)
UACC-257
  GI50: > 100 µM (inactive)
DMS-114
  GI50: > 100 µM (inactive)
SNB-19
  GI50: > 100 µM (inactive)
HCC 2998
  GI50: > 100 µM (inactive)
HL-60
  GI50: > 100 µM (inactive)
CAKI-1
  GI50: > 100 µM (inactive)
SR
  GI50: > 100 µM (inactive)
HCT-15
  GI50: > 100 µM
NCI-H460
  GI50: > 100 µM (inactive)
Malme-3M
  GI50: > 100 µM (inactive)
HOP-62
  GI50: > 100 µM (inactive)
SF-268
  GI50: > 100 µM (inactive)
HCT-116
  GI50: > 100 µM (inactive)
OVCAR-3
  GI50: > 100 µM (inactive)
SW-620
  GI50: > 100 µM (inactive)
OVCAR-8
  GI50: > 100 µM (inactive)
HT-29
  GI50: > 100 µM (inactive)
NCI-H522
  GI50: > 100 µM (inactive)
SNB-75
  GI50: > 100 µM (inactive)
SK-MEL-5
  GI50: > 100 µM (inactive)
UACC-62
  GI50: > 100 µM (inactive)
A498
  GI50: > 100 µM (inactive)
ACHN
  GI50: > 100 µM (inactive)
M19-MEL
  GI50: > 100 µM (inactive)
786-0
  GI50: > 100 µM (inactive)
EKVX
  GI50: > 100 µM (inactive)
OVCAR-4
  GI50: > 100 µM (inactive)
A549
  GI50: > 100 µM (inactive)
LOX IMVI
  GI50: > 100 µM (inactive)
DMS-273
  GI50: > 100 µM (inactive)
SNB-78
  GI50: > 100 µM (inactive)
U-251
  GI50: > 100 µM (inactive)
CCRF-CEM
  GI50: > 100 µM (inactive)
IGROV-1
  GI50: > 100 µM (inactive)
SF-539
  GI50: > 100 µM (inactive)
M14
  GI50: > 100 µM (inactive)
NCI-H226
  GI50: > 100 µM (inactive)
RPMI-8226
  GI50: > 100 µM (inactive)
DLD-1
  GI50: > 100 µM (inactive)
COLO 205
  GI50: > 100 µM (inactive)
RXF 393
  GI50: > 100 µM (inactive)
RXF 631
  GI50: > 100 µM (inactive)
TK-10
  GI50: > 100 µM (inactive)
SK-OV-3
  GI50: > 100 µM (inactive)
KM-20L2
  GI50: > 100 µM (inactive)
SK-MEL-28
  GI50: > 100 µM (inactive)
SN12C
  GI50: > 100 µM (inactive)
